From US20130210034A1, “COMPLEX PHOSPHOPROTEIN ACTIVATION PROFILES” (BECKMAN COULTER, INC., priority 2005, published 2013)

B1: FMS-Like Tyrosine Kinase 3 (FLT-3) ligand (protein, UniProt P49771 27-235, looked up)
Fms-related tyrosine kinase 3 …: TQDCSFQHSPISSDFAVKIRELSDYLLQDYPVTVASNLQDEELCGGLWRLVLAQRWMERLKTVAGSKMQGLLERVNTEIHFVTKCAFQPPPSCLRFVQTNISRLLQETSEQLVALKPWITRQNFSRCLELQCQPDSSTLPPPWSPRPLEATAPTAPQPPLLLLLLLPVGLLLLAAAWCLHWQRTRRRTPRPGEQVPPVPSPQDLLLVEH

How the values were obtained:
[1] = test system: pERK; assay: Cytokine-stimulated phosphorylation in AML cell populations (BM or PB of AML patients); format: cell-based, human
Experimental: To assess the signal transduction response after growth factor simulation, a series comprising two sets of tubes including about 3×10^6 cells/100 μL were incubated at 37° C. for 30 minutes. After this pre-incubation period, tubes with then processes with either a stimulant or inhibitor. […] To examine the effects of protein phosphorylation inhibition, tubes were incubated with an inhibitor cocktail comprising 100 μM/100 μL UO126, 1 μM/100 μL LY294002, and 1 μM/100 μL rapamycin. One unstimulated tube receiving no stimulant or inhibitor was processed to assess basal levels of phospho-protein expression. After stimulation the cells were immediately fixed in 10% formaldehyde solution at 37° C. Pre-labeling with CD13, CD16 and CD64 antibodies was carried out 20 minutes prior to formaldehyde fixation. After fixation, one set of tubes was permeabilized without methanol for pAKT, pERK and pS6 staining and the other for 80% methanol permeabilized for pSTAT3 and pSTAT5 staining. After permeablization, the cells were washed in PBS with 2% BSA and blocked by re-suspended in 75 μL of PBS comprising 25% heat inactivated normal mouse serum, 25% normal rabbit serum. To stain cells with fluorescent conjugated monoclonal antibodies, samples were incubated on ice for 45 minutes in 100 μL of an antibody staining solution including either: 1) CD15-Pacific Orange, CD34-Phycoerythrin-Texas Red, CD117-Phycoerythrin-Cyanin 5.5, CD45-Allophycocyanin-Alexa Fluor 750 (or CD45-Pacific Orange, in which case CD15-Pacific Orange was omitted), pS6-Pacific Blue, pERK-Alexa Fluor 488 and pAKT-Alexa Fluor 647 or 2) CD15-Pacific Orange, CD34-Phycoerythrin-Texas Red, CD117-Phycoerythrin-Cyanin 5.5, CD45-Allophycocyanin-Alexa Fluor 750 or CD45-Pacific Blue, pSTAT3-Alexa Fluor 488 and pSTAT5-Phycoerythrin. The stained cells were washed twice with ice cold PBS containing 2% BSA and centrifuged at 800 g for 6 minutes at 4° C. The supernatant was discarded and cells re-suspended in 250 μL of chilled wash buffer for data acquisition. Stained cells were examined using either GALIOS flow cytometer (Beckman Coulter) or CYAN ADP (Beckman Coulter) equipped with 488 nm, 405 nm and 635 nm lasers to detect the degree of fluorescence. Data were analyzed using FCS Express (De Novo Software, CA) analysis software.
Specific phosphoprotein expression of pERK, pS6, pAKT, pSTAT5, and pSTAT3 was examined in seven discrete phenotypically defined populations based on 7-color immunophenotyping (FIG. 1). The percent of responding (phosphorprotein positive) cells for each of these populations was determined from individual single parameter histograms based on a fixed integration region set on the inhibitor treated control at about 3% positives.
Using normal BM signaling profiles of Example 1 as comparison, analysis of 14 AML samples was carried out to identify differences in signaling responses. White blood cells from BM or peripheral blood (PB) samples were obtained from 14 diagnosed AML patients undergoing routine clinical flow cytometry analysis using IRB approved protocols. The AML patients included newly diagnosed AML, AMLs arising in a background of MDS, therapy related AMLs and previously diagnosed AML post therapy. The median age of the patients at diagnosis was 51 years (range: 29-75 years) and represented 5 female and 9 male patients. The median white blood cell was 6.4 million/mL (range: 0.9-106 M/mL) and the BM morphologic blast count was an average of 46% (range: 0%-90%).
Experiments performed to assess the signal transduction response after growth factor simulation were performed as described for Example 1.

[2] = test system: lymphocytes; assay: Cytokine response in lymphocytes from bone marrow samples of healthy donors (Example 4); format: cell-based, human; conditions: lymphocytes from healthy donor bone marrow (Example 4)
Experimental: To assess the signal transduction response after growth factor simulation, 100 to 200 μL of processed samples including about 2×10^6 WBC/100 μL were added to tubes and incubated at 37° C. for 30 minutes. For inhibition experiments, cells were incubated with 100 μM U0126, 1 μg/mL rapamycin, or both for at least 20 minutes prior to cytokine addition and in all cases for 30 min prior to formaldehyde addition. […] After stimulation the cells were immediately fixed by the addition of formaldehyde to a final concentration of 4% v/v and incubated for 10 minutes at room temperature. […]
First, doublets, aggregates, and debris were excluded by gating on single cell events in the SSC-Area versus SSC-Height histogram. […] Finally, these cells were further analyzed for cytokine-mediated increases in phosphorylation by constructing gates in the single parameter histograms (for positively and negatively stained events, i.e., for the phosphorylated and non-phosphorylated forms, respectively, of each protein) for pS6 (FIGS. 4D and 4G), pERK (FIGS. 4E and 4H), and pSTAT5 (FIGS. 4F and 4I). […] Following this gating scheme, data were analyzed by calculating the area under the curve (AUC), the frequency of positive-stained cells, and the median fluorescence intensity (MFI).

| Molecule | pERK, AML Sample ([1]; patient AML2 (Example 3)) | pERK, AML Sample (first AML5 line) ([1]; patient AML5 (Example 3), normal value of this line is an S/N ratio) | pERK, AML Sample ([1]; patient AML6 (Example 3)) | pERK, AML Sample ([1]; patient AML11 (Example 3)) | pERK, AML Sample ([1]; patient AML12 (Example 3)) | pERK, AML Sample ([1]; patient AML13 (Example 3)) | Phosphorylation response in lymphocytes [2] | pERK, AML Sample ([1]; patient AML1 (Example 3)) | pERK, AML Sample ([1]; patient AML5 (Example 3)) | pERK, AML Sample ([1]; patient AML9 (Example 3)) |
| --- | --- | --- | --- | --- | --- | --- | --- | --- | --- | --- |
| Stem Cell Factor [SCF] | 4.8 | 3.4 | 3.0 | 3.3 | 3.3 | 4.8 | lack of SCF's effect |  |  |  |
| B1 |  |  |  |  |  |  | no response | 10.3 | 8.1 | 12.0 |
